{"source": "patent US20190240225A1", "about": "“COMBINATION OF A BCL-2 INHIBITOR AND A MCL-1 INHIBITOR, USES AND PHARMACEUTICAL COMPOSITIONS THEREOF” (LES LABORATOIRES SERVIER, priority 2016, published 2019)", "format_in_all_cases": "cell-based", "key": {"DOHH-2": {"test_system": "DOHH-2", "assay": "CellTiterGlo viability, DLBCL cell line", "conditions": "single agent, 2 days; for IC50: read-out: Abs IC50", "protocol": "(§5) In addition, all media contained penicillin (100 IU/ml), streptomycin (100 μg/ml) and L-glutamine (2 mM). Unless otherwise mentioned, culture media and supplements were from Amimed/Bioconcept (Allschwil, Switzerland).\n(§6) Cell lines were cultured at 37° C. in a humidified atmosphere containing 5% CO2 and expanded in T-75 flasks. In all cases cells were thawed from frozen stocks, expanded through ≥1 passage using appropriate dilutions, counted and assessed for viability using a CASY cell counter (Omni Life Science, Bremen, Germany) prior to plating 25 ul/well at the densities indicated in Table 1 into 384-well plates (Corning). All cell lines were determined to be free of mycoplasma contamination by PCR assay performed at Idexx Radii (Columbia, Mo., USA) and misidentification ruled out by assessment of a panel of 48 Small Nucleotide Polymorphisms (SNPs) at Asuragen (Austin, Tex., USA) or in-house.\n(§7) Stock solutions of compounds were prepared at a concentration of 10 mM in DMSO (Sigma) and stored at −20° C. Where necessary to afford a full dose-response curve, the stock solutions were pre-diluted in DMSO to 1′000-fold the desired start concentration (see Table 2). On the day after cell seeding, eight 2.5-fold serial dilutions of each compound were dispensed, either individually or in all possible permutations in a checkerboard fashion, directly into the cell assay plates using a non-contact 300D Digital Dispenser (ILCAN, Mannedorf, Switzerland) as outlined in FIG. 4. The final concentration of DMSO was 0.2% in all wells.\n(§8) Effects of the single agents as well as their checkerboard combinations on cell viability were assessed after 2 days of incubation at 37° C./5% CO2 by quantification of cellular ATP levels using CellTiterGlo (Promega, Madison, Wis., USA) at 25 μL reagent/well and n=2 replicate plates per condition. Luminescence was quantified on a M1000 multipurpose platereader (ILCAN, Mannedorf, Switzerland). The number/viability of cells at time of compound addition was likewise assessed and used to assess the degree of the population doubling time of a particular cell line.\n(§9) Single agent IC50s were calculated using standard four-parametric curve fitting. […] All calculations were performed using the Combination Analysis Module in-house software. IC50 are defined as the compound concentration at which the CTG signal is reduced to 50% of that measured for the vehicle (DMSO) control."}, "HT": {"test_system": "HT", "assay": "CellTiterGlo viability, DLBCL cell line", "conditions": "single agent, 2 days; for IC50: read-out: Abs IC50", "protocol": "as §5, §6, §7, §8, §9"}, "JM1": {"test_system": "JM1", "assay": "CellTiterGlo viability, DLBCL cell line", "conditions": "single agent, 2 days; for IC50: read-out: Abs IC50", "protocol": "as §5, §6, §7, §8, §9"}, "KARPAS-422": {"test_system": "KARPAS-422", "assay": "CellTiterGlo viability, DLBCL cell line", "conditions": "single agent, 2 days; for IC50: read-out: Abs IC50", "protocol": "as §5\n(§10) Cell lines were cultured at 37° C. in a humidified atmosphere containing 5% CO2 and expanded in T-75 flasks. In all cases cells were thawed from frozen stocks, expanded through ≥1 passage using appropriate dilutions, counted and assessed for viability using a CASY cell counter (Omni Life Science, Bremen, Germany) prior to plating 25 ul/well at the densities indicated in Table 1 into 384-well plates (Corning).\nas §7, §8\n(§11) Single agent IC50s were calculated using standard four-parametric curve fitting. […] IC50 are defined as the compound concentration at which the CTG signal is reduced to 50% of that measured for the vehicle (DMSO) control."}, "NU-DHL-1": {"test_system": "NU-DHL-1", "assay": "CellTiterGlo viability, DLBCL cell line", "conditions": "single agent, 2 days; for IC50: read-out: Abs IC50", "protocol": "as §5, §10, §7, §8, §11"}, "OCI-LY-19": {"test_system": "OCI-LY-19", "assay": "CellTiterGlo viability, DLBCL cell line", "conditions": "single agent, 2 days; for IC50: read-out: Abs IC50", "protocol": "as §5, §10, §7, §8, §11"}, "SU-DHL-10": {"test_system": "SU-DHL-10", "assay": "CellTiterGlo viability, DLBCL cell line", "conditions": "single agent, 2 days; for IC50: read-out: Abs IC50", "protocol": "as §5, §6, §7, §8, §11"}, "SU-DHL-4": {"test_system": "SU-DHL-4", "assay": "CellTiterGlo viability, DLBCL cell line", "conditions": "single agent, 2 days; for IC50: read-out: Abs IC50", "protocol": "as §5, §6, §7, §8, §11"}, "SU-DHL-5": {"test_system": "SU-DHL-5", "assay": "CellTiterGlo viability, DLBCL cell line", "conditions": "single agent, 2 days; for IC50: read-out: Abs IC50", "protocol": "as §5, §6, §7, §8, §11"}, "SU-DHL-6": {"test_system": "SU-DHL-6", "assay": "CellTiterGlo viability, DLBCL cell line", "conditions": "single agent, 2 days; for IC50: read-out: Abs IC50", "protocol": "as §5, §6, §7, §8, §11"}, "Toledo": {"test_system": "Toledo", "assay": "CellTiterGlo viability, DLBCL cell line", "conditions": "for IC50 / Max Inh: Toledo, single agent, 2 days; for IC50: read-out: Abs IC50", "protocol": "as §5, §6, §7, §8, §9"}, "U-937": {"test_system": "U-937", "assay": "CellTiterGlo viability, DLBCL cell line", "conditions": "single agent, 2 days; for IC50: read-out: Abs IC50", "protocol": "as §5, §6, §7, §8, §11"}, "BE-13": {"test_system": "BE-13", "assay": "CellTiterGlo viability, T-ALL cell line", "conditions": "single agent, 72 h", "experimental": "(§1) In addition, all media contained penicillin (100 IU/ml), streptomycin (100 μg/ml) and L-glutamine (2 mM). Cell lines were cultured at 37° C. in a humidified atmosphere containing 5% CO2 and expanded in T-150 flasks. In all cases cells were thawed from frozen stocks, expanded through ≥1 passage using appropriate dilutions, counted and assessed for viability using a CASY cell counter prior to plating 150 ul/well at the densities indicated in Table 9 into 96-well plates. All cell lines were determined to be free of mycoplasma contamination in-house.\n(§2) Stock solutions of compounds were prepared at a concentration of 5 mM in DMSO and stored at −20° C. In order to analyse the activity of the compounds as single agents, cells were seeded and treated with nine 2-fold serial dilutions of each compound dispensed individually directly into the cell assay plates. Effects of the compounds on cell viability were assessed after 3 days of incubation at 37° C./5% CO2 by quantification of cellular ATP levels using CellTiterGlo at 75 μL reagent/well. All the conditions were tested in triplicates. Luminescence was quantified on a multipurpose plate reader. Single agent IC50s were calculated using standard four-parametric curve fitting. IC50 is defined as the compound concentration at which the CTG signal is reduced to 50% of that measured for the vehicle (DMSO) control.\n(§3) In order to analyse the activity of the compounds in combination, cells were seeded and treated with seven or eight 3.16-fold serial dilutions of each compound dispensed, either individually or in all possible permutations in a checkerboard fashion, directly into the cell assay plates as indicated in FIG. 1. Effects of the single agents as well as their checkerboard combinations on cell viability were assessed after 3 days of incubation at 37° C./5% CO2 by quantification of cellular ATP levels using CellTiterGlo at 75 μL reagent/well. For B-ALL cell lines, two independent experiments, each one performed in duplicates, were performed. For T-ALL cell lines, one experiment performed in triplicate was performed. Luminescence was quantified on a multipurpose plate reader.\n(§4) Potential synergistic interactions between compound combinations were assessed using the Excess Inhibition 2D matrix according to the Loewe additivity model and are reported as Synergy Score (Lehar et al, Nat Biotechnol. 2009 July; 27(7): 659-666). All calculations were performed using Chalice TM Bioinformatics Software available in Horizon website. The doubling time indicated in Table 9 is the mean of the doubling time obtained in the different passages (in T-150 flasks) performed from the thawing of the cells to their seeding in the 96-well plates."}, "CML-T1": {"test_system": "CML-T1", "assay": "CellTiterGlo viability, T-ALL cell line", "conditions": "single agent, 72 h", "experimental": "as §1, §2, §3, §4"}, "DND-41": {"test_system": "DND-41", "assay": "CellTiterGlo viability, T-ALL cell line", "conditions": "72 h", "experimental": "as §1, §2, §3, §4"}, "HPB-ALL": {"test_system": "HPB-ALL", "assay": "CellTiterGlo viability, T-ALL cell line", "conditions": "single agent, 72 h", "experimental": "as §1, §2, §3, §4"}, "MOLT-4": {"test_system": "MOLT-4", "assay": "CellTiterGlo viability, T-ALL cell line", "conditions": "single agent, 72 h", "experimental": "as §1, §2, §3, §4"}, "TALL-104": {"test_system": "TALL-104", "assay": "CellTiterGlo viability, T-ALL cell line", "conditions": "single agent, 72 h", "experimental": "as §1, §2, §3, §4"}}, "note": "Where two headings read alike, the source gives them in different places.", "data": [{"smiles": "Cl.O=C(c1cc(-c2cc3c(cc2C(=O)N2Cc4ccccc4C[C@H]2CN2CCOCC2)OCO3)n2c1CCCC2)N(c1ccccc1)c1ccc(O)cc1", "note": "[Compound 1, HCl, N-(4-hydroxyphenyl)-3-{6-[((3S)-3-(4-morpholinylmethyl)-3,4-dihydro-2(1H)-isoquinolinyl)carbonyl]-1,3-benzodioxol-5-yl}-N-phenyl-5,6,7,8-tetrahydro-1-indolizine carboxamide hydrochloride]", "values": [{"measurement": "IC50", "setting": "DOHH-2; Homo sapiens, 48 h", "result": 156, "unit": "nM"}, {"measurement": "Max Inh", "setting": "DOHH-2", "result": 101.9, "unit": "%"}, {"measurement": "IC50", "setting": "HT; Homo sapiens, 48 h", "result": "≥ 10000", "unit": "nM"}, {"measurement": "Max Inh", "setting": "HT", "result": 37.2, "unit": "%"}, {"measurement": "IC50", "setting": "JM1; Homo sapiens, 48 h", "result": 697, "unit": "nM"}, {"measurement": "Max Inh", "setting": "JM1", "result": 99.1, "unit": "%"}, {"measurement": "IC50", "setting": "KARPAS-422; Homo sapiens, 48 h", "result": 2180, "unit": "nM"}, {"measurement": "Max Inh", "setting": "KARPAS-422", "result": 90.9, "unit": "%"}, {"measurement": "IC50", "setting": "NU-DHL-1; Homo sapiens, 48 h", "result": 51.5, "unit": "nM"}, {"measurement": "Max Inh", "setting": "NU-DHL-1", "result": 102.1, "unit": "%"}, {"measurement": "IC50", "setting": "OCI-LY-19; Homo sapiens, OCI-LY19, 48 h", "result": 89.5, "unit": "nM"}, {"measurement": "Max Inh", "setting": "OCI-LY-19", "result": 100.1, "unit": "%"}, {"measurement": "IC50", "setting": "SU-DHL-10; Homo sapiens, SU-DHL10, 48 h", "result": "≥ 10000", "unit": "nM"}, {"measurement": "Max Inh", "setting": "SU-DHL-10", "result": 43.9, "unit": "%"}, {"measurement": "IC50", "setting": "SU-DHL-4; Homo sapiens, 48 h", "result": 860, "unit": "nM"}, {"measurement": "Max Inh", "setting": "SU-DHL-4", "result": 96.9, "unit": "%"}, {"measurement": "IC50", "setting": "SU-DHL-5; Homo sapiens, 48 h", "result": "≥ 10000", "unit": "nM"}, {"measurement": "Max Inh", "setting": "SU-DHL-5", "result": 49.6, "unit": "%"}, {"measurement": "IC50", "setting": "SU-DHL-6; Homo sapiens, 48 h", "result": 614, "unit": "nM"}, {"measurement": "Max Inh", "setting": "SU-DHL-6", "result": 101.0, "unit": "%"}, {"measurement": "IC50", "setting": "Toledo; Homo sapiens, 48 h", "result": 137, "unit": "nM"}, {"measurement": "Max Inh", "setting": "Toledo", "result": 101.9, "unit": "%"}, {"measurement": "IC50", "setting": "U-937; Homo sapiens, 48 h", "result": 6830, "unit": "nM"}, {"measurement": "Max Inh", "setting": "U-937", "result": 62.1, "unit": "%"}, {"measurement": "IC50", "setting": "BE-13", "result": 6700, "unit": "nM"}, {"measurement": "IC50", "setting": "CML-T1", "result": 15000, "unit": "nM"}, {"measurement": "IC50", "setting": "DND-41; DND41, single agent", "result": 9000, "unit": "nM"}, {"measurement": "IC50", "setting": "HPB-ALL; Homo sapiens, HPBALL", "result": 4500, "unit": "nM"}, {"measurement": "IC50", "setting": "MOLT-4; Homo sapiens", "result": 3290, "unit": "nM"}, {"measurement": "IC50", "setting": "TALL-104", "result": 15900, "unit": "nM"}]}, {"smiles": "COc1ccccc1-c1nccc(COc2ccccc2C[C@@H](Oc2ncnc3sc(-c4ccc(F)cc4)c(-c4ccc(OCCN5CCN(C)CC5)c(Cl)c4C)c23)C(=O)O)n1", "note": "[Compound 3, (2R)-2-{[(5Sa)-5-{3-chloro-2-methyl-4-[2-(4-methylpiperazin-1-yl)ethoxy]phenyl}-6-(4-fluorophenyl)thieno[2,3-d]pyrimidin-4-yl]oxy}-3-(2-{[2-(2-methoxyphenyl)pyrimidin-4-yl]methoxy}phenyl)propanoic acid]", "values": [{"measurement": "Max Inh", "setting": "DOHH-2", "result": 98.3, "unit": "%"}, {"measurement": "IC50", "setting": "DOHH-2", "result": 1.22, "unit": "nM"}, {"measurement": "Max Inh", "setting": "HT", "result": 99.3, "unit": "%"}, {"measurement": "IC50", "setting": "HT", "result": 6.38, "unit": "nM"}, {"measurement": "Max Inh", "setting": "JM1", "result": 99.7, "unit": "%"}, {"measurement": "IC50", "setting": "JM1", "result": 58.8, "unit": "nM"}, {"measurement": "Max Inh", "setting": "KARPAS-422", "result": 98.3, "unit": "%"}, {"measurement": "IC50", "setting": "KARPAS-422", "result": 2.14, "unit": "nM"}, {"measurement": "Max Inh", "setting": "NU-DHL-1", "result": 98.1, "unit": "%"}, {"measurement": "IC50", "setting": "NU-DHL-1", "result": 57.9, "unit": "nM"}, {"measurement": "Max Inh", "setting": "OCI-LY-19", "result": 98.5, "unit": "%"}, {"measurement": "IC50", "setting": "OCI-LY-19", "result": 60.4, "unit": "nM"}, {"measurement": "Max Inh", "setting": "SU-DHL-10", "result": 98.3, "unit": "%"}, {"measurement": "IC50", "setting": "SU-DHL-10", "result": 3.84, "unit": "nM"}, {"measurement": "Max Inh", "setting": "SU-DHL-4", "result": 99.5, "unit": "%"}, {"measurement": "IC50", "setting": "SU-DHL-4", "result": 17.8, "unit": "nM"}, {"measurement": "Max Inh", "setting": "SU-DHL-5", "result": 98.2, "unit": "%"}, {"measurement": "IC50", "setting": "SU-DHL-5", "result": 0.94, "unit": "nM"}, {"measurement": "Max Inh", "setting": "SU-DHL-6", "result": 99.1, "unit": "%"}, {"measurement": "IC50", "setting": "SU-DHL-6", "result": 2.13, "unit": "nM"}, {"measurement": "growth inhibition", "setting": "Toledo; Toledo cells, Compound 3 at the highest concentration tested, combination with the second lowest concentration of Compound 1 (FIG. 4B)", "result": 46, "unit": "%"}, {"measurement": "Max Inh", "setting": "Toledo", "result": 45.8, "unit": "%"}, {"measurement": "IC50", "setting": "Toledo", "result": "≥ 1000", "unit": "nM"}, {"measurement": "Max Inh", "setting": "U-937", "result": 97.1, "unit": "%"}, {"measurement": "IC50", "setting": "U-937", "result": 8.32, "unit": "nM"}, {"measurement": "IC50", "setting": "BE-13", "result": 15, "unit": "nM"}, {"measurement": "IC50", "setting": "CML-T1", "result": 6000, "unit": "nM"}, {"measurement": "IC50", "setting": "DND-41; single agent", "result": 7000, "unit": "nM"}, {"measurement": "IC50", "setting": "HPB-ALL", "result": 660, "unit": "nM"}, {"measurement": "IC50", "setting": "MOLT-4", "result": 26, "unit": "nM"}, {"measurement": "IC50", "setting": "TALL-104", "result": 44, "unit": "nM"}]}]}
